Drawing on PubChem BioAssay (NCI), this text covers TGI for nine molecules.

Some test systems named below: SR leukemia; HOP-92 NSCLC; OVCAR-4 ovarian; CAKI-1 renal; NCI-H23 lung; LOX IMVI melanoma; COLO 205 colon; HOP-62 NSCLC; UACC-257 melanoma; M14 melanoma; SN12C renal; HCT-116 colon; TK-10 renal; ACHN renal; RPMI-8226 leukemia; SK-MEL-28 melanoma; PC-3 prostate; DU-145 prostate; MDA-MB-435.
Common to all, as to experiment: NCI anticancer screen, dose series, 48 h

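Protocol summary: plate cells (96-well), add compound at 5 concentrations, incubate 48 h, interpolate endpoints linearly. TGI: total growth inhibition.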

As for `NC1=NC2=c3ccccc3=C(c3cnccn3)C2(c2cnccn2)c2ccccc21` (stereo not drawn), the TGI with SR leukemia, with HOP-92 NSCLC, with OVCAR-4 ovarian, in the experiment on CAKI-1 renal, in the experiment on NCI-H23 lung and in the experiment on LOX IMVI melanoma was greater than 100 µM each time. In addition, the TGI in the experiment on COLO 205 colon, in the experiment with HOP-62 NSCLC, in the experiment with UACC-257 melanoma, in the experiment on M14 melanoma, in the experiment on SN12C renal and in the experiment with HCT-116 colon was greater than 100 µM each time. Also, the TGI in the experiment on TK-10 renal, with ACHN renal, in the experiment on RPMI-8226 leukemia and with SK-MEL-28 melanoma was greater than 100 µM each time.

Regarding `CCN(CC)Cc1cc(Nc2c3ccccc3nc3c2[nH]c2ccccc23)cc(CN(CC)CC)c1O`, the TGI turned out to be 3.86 µM in the experiment with HOP-92 NSCLC; 1.81 µM in the experiment with OVCAR-4 ovarian; 4.26 µM in the experiment on CAKI-1 renal; 2.62 µM in the experiment on NCI-H23 lung; 2.75 µM in the experiment with PC-3 prostate; 7.99 µM in the experiment on DU-145 prostate. In addition, the TGI came out at 1.74 µM in the experiment with COLO 205 colon; 2.04 µM with MDA-MB-435; 2.26 µM in the experiment with HOP-62 NSCLC; 2.86 µM in the experiment on UACC-257 melanoma; 1.33 µM in the experiment with M14 melanoma; 2.18 µM in the experiment on SN12C renal. In addition, the TGI came to 3.33 µM with HCT-116 colon, 11.7 µM in the experiment on TK-10 renal, 3.48 µM in the experiment on ACHN renal and 5.3 µM with SK-MEL-28 melanoma.

For `CC1(C)CC(=O)C(/C=N/C(N)=S)=C(O)C1`, the TGI with HOP-92 NSCLC, in the experiment with OVCAR-4 ovarian, in the experiment on CAKI-1 renal, with NCI-H23 lung, in the experiment with PC-3 prostate and in the experiment with LOX IMVI melanoma was greater than 100 µM each time. For the same molecule, the TGI in the experiment with DU-145 prostate, in the experiment on COLO 205 colon, in the experiment with MDA-MB-435, in the experiment with HOP-62 NSCLC, in the experiment on UACC-257 melanoma and in the experiment with M14 melanoma was greater than 100 µM each time. The TGI in the experiment with SN12C renal, with HCT-116 colon, in the experiment on TK-10 renal, with ACHN renal and with SK-MEL-28 melanoma was greater than 100 µM throughout.

Take `COc1ccccc1C1C(Cl)C(=O)N1n1cnc2ccccc2c1=O` (stereo not drawn): the TGI with SR leukemia, in the experiment on OVCAR-4 ovarian, in the experiment on CAKI-1 renal, with NCI-H23 lung, with LOX IMVI melanoma and with COLO 205 colon was greater than 100 µM in each case. Moreover, the TGI in the experiment on HOP-62 NSCLC, in the experiment with UACC-257 melanoma, with M14 melanoma, with SN12C renal, in the experiment with HCT-116 colon and with TK-10 renal was greater than 100 µM throughout. The TGI in the experiment with ACHN renal, with RPMI-8226 leukemia and in the experiment on SK-MEL-28 melanoma was greater than 100 µM in each case.

`COC(=O)C(=O)C(C(=O)C(=O)Nc1cccc(C(C)=O)c1)c1nc2ccc([N+](=O)[O-])cc2[nH]c1=O` (stereo not drawn): the TGI in the experiment on SR leukemia, in the experiment with HOP-92 NSCLC, with OVCAR-4 ovarian, in the experiment with CAKI-1 renal, in the experiment on NCI-H23 lung and in the experiment on LOX IMVI melanoma was greater than 100 µM throughout. Besides, the TGI with COLO 205 colon, in the experiment with HOP-62 NSCLC, in the experiment with UACC-257 melanoma, in the experiment on M14 melanoma, with SN12C renal and in the experiment on HCT-116 colon was greater than 100 µM in each case. For the same molecule, the TGI in the experiment on TK-10 renal, in the experiment on ACHN renal, with RPMI-8226 leukemia and in the experiment with SK-MEL-28 melanoma was greater than 100 µM throughout.

For `CC(C)(C)OC(=O)N[C@H]1CC(O)c2ccccc2N(CC(=O)O)C1=O` (stereo partly drawn), the TGI with SR leukemia, in the experiment on HOP-92 NSCLC, in the experiment on OVCAR-4 ovarian, in the experiment with CAKI-1 renal, in the experiment on NCI-H23 lung and with LOX IMVI melanoma was greater than 100 µM in each case. Further, the TGI with COLO 205 colon, in the experiment with HOP-62 NSCLC, in the experiment on UACC-257 melanoma, in the experiment with M14 melanoma, with SN12C renal and with HCT-116 colon was greater than 100 µM in each case. For the same molecule, the TGI in the experiment on TK-10 renal, in the experiment with ACHN renal and in the experiment on SK-MEL-28 melanoma was greater than 100 µM throughout.

In the case of `Cc1[nH]c(=O)nc2c1C(NCCCN(C)C)c1cc(Cl)ccc1N2` (stereo not drawn), the TGI came to 27.3 µM with SR leukemia; 23.4 µM with HOP-92 NSCLC; 32.3 µM with NCI-H23 lung; 24.5 µM in the experiment on LOX IMVI melanoma; 26 µM in the experiment with COLO 205 colon; 27.9 µM with HOP-62 NSCLC. Besides, the TGI with UACC-257 melanoma amounted to 26 µM; with M14 melanoma it was 21.3 µM; in the experiment with SN12C renal, 28.2 µM; with HCT-116 colon it was 28.5 µM; in the experiment with TK-10 renal, 32.5 µM; in the experiment with ACHN renal it was 30.2 µM. Also, the TGI in the experiment on RPMI-8226 leukemia came out at 44 µM; with SK-MEL-28 melanoma, 27.2 µM.

As to `c1ccc2c(c1)NCCC(=NC1CCCCC1)N2`, the TGI in the experiment on OVCAR-4 ovarian, in the experiment on CAKI-1 renal, with NCI-H23 lung, in the experiment on PC-3 prostate, in the experiment on DU-145 prostate and with COLO 205 colon was greater than 100 µM in each case. For the same molecule, the TGI with MDA-MB-435, in the experiment with HOP-62 NSCLC, with UACC-257 melanoma, in the experiment with M14 melanoma, in the experiment with SN12C renal and in the experiment with HCT-116 colon was greater than 100 µM each time. The TGI in the experiment on TK-10 renal, in the experiment with ACHN renal, with RPMI-8226 leukemia and in the experiment on SK-MEL-28 melanoma was greater than 100 µM throughout.

Regarding `Oc1ccc([Te]CCNCC[Te]c2ccc(O)cc2)cc1`, the TGI in the experiment with SR leukemia is greater than 100 µM; in the experiment on CAKI-1 renal it was greater than 100 µM; with NCI-H23 lung, 23.2 µM; with LOX IMVI melanoma, 43 µM; in the experiment with COLO 205 colon, 22.4 µM; in the experiment with HOP-62 NSCLC it was 46.5 µM. Further, the TGI was greater than 100 µM with UACC-257 melanoma; 55.3 µM in the experiment with M14 melanoma; greater than 100 µM with SN12C renal; 28.4 µM in the experiment on HCT-116 colon; 90.7 µM in the experiment on TK-10 renal; 94.8 µM in the experiment with ACHN renal. The molecule further returned a TGI with RPMI-8226 leukemia greater than 100 µM.
